Results published in patent US10899639B2, “Composition and method for inhibiting microbial adhesion on surfaces” (SOLENIS TECHNOLOGIES, L.P., priority 2017, dated 2021).

Tested on: Biofilms grown on stainless steel 316 coupons
Assay: biofilm reduction on stainless steel 316 coupons from CDC Biofilm reactor, viable cell plating
Assay type: cell-based
Details: two hours at 28° C. with shaking
Description: Biofilms were grown on stainless steel 316 coupons in a CDC Biofilm reactor using […] minimal salts growth media for a period of twenty-four hours. […] A control was done with […] media. After the biofilms were grown, each coupon from the rods in the CDC reactor was unscrewed and dropped into a well of the plate. The plate was then incubated for two hours at 28° C. with shaking. Following the incubation, the coupons were removed from the wells and placed into 5 mL of phosphate-buffered saline (PBS) and sonicated for six minutes. Viable cells released into the fluid were then determined by a plating method. The results are recorded as the percent reduction in cell counts relative to the control.

Substance: sodium dodecylbenzene sulfonate [Biosoft D-40]
- percent reduction in cell counts relative to the control (LAS 40 ppm actives): 41.83%
- percent reduction in cell counts relative to the control (LAS 100 ppm actives): 81.58%
